Assay results from patent publication US20260355318A1, “MOLECULAR MACHINES FOR TREATMENT OF CANCER, FUNGAL INFECTIONS, OR BACTERIAL INFECTIONS” (priority 2022, published 2026).

Experiments:
C. albicans = assay: Time-kill assay, C. albicans; type: cell-based, Candida albicans; settings: C. albicans, 2×MIC, 405-nm light at 292 mW cm^−2
Experimental: For yeasts, five independent colonies were collected from 24-h SDAE plates, inoculated into yeast peptone with 2% dextrose (YPD), and grown for 24 h at 30 °C. Cells were then sub-cultured in fresh medium and grown for ~9 h. Afterward, the cells were centrifuged (5,000 ×g, 5 min), washed, and resuspended in phosphate-buffered saline (PBS) to ~10^6 CFU mL^−1. For A. fumigatus, conidia suspensions (~10^4 CFU mL^−1) were prepared in PBS as previously described.
Amphotericin B (AMB, 4×MIC) controls were prepared likewise, but light was omitted. Aliquots were collected in 1-min increments for up to 10 min, serially diluted in PBS, and plated on SDAE medium. Plates were incubated at 30 ° C for 48 h with confirmation after 72 h (yeasts) or at 28 ° C for 7 days with confirmation after 14 days (A. fumigatus), after which the CFU number was determined. The results were expressed as the logarithm of base 10 of the ratio between the CFU at each time point and the CFU at time 0. The detection limit of the method was ~1 log10 CFU mL^−1.

[1] = tested on: mature C. albicans biofilms; assay: Biofilm viability (XTT assay); type: cell-based, Candida albicans; settings: 2×, 4×MIC, vs DMSO, MMs with 87.6 J cm^−2 405-nm light
Experimental: The antibiofilm activity of MMs was investigated using 96-well microtiter plates with flat-bottom wells as a closed static biofilm reactor. This setup is reliable, inexpensive, easy to use and obtain, and requires no additional equipment (Pierce et al., 2010). Two parameters were used to evaluate antibiofilm activity: biofilm biomass and biofilm viability. Biofilm biomass was determined using the crystal violet method (Martins et al, 2010), a simple, inexpensive, and readily accessible method for determining biofilm biomass. However, because crystal violet binds both live and dead cells as well as extracellular polymeric substances, it cannot be used alone to reliably assess antibiofilm activity. To overcome this limitation, the XTT assay was used to evaluate biofilm viability (Nett et al., 2011). […] The resulting formazan can be easily detected by measuring the absorbance at 490 nm, which is proportional to the number of living cells, providing a reliable quantitative measurement of metabolically active cells in biofilms (Taff et al., 2012). […]
Biofilm viability was determined using an XTT cell viability assay kit (Biotium, Hayward, CA, USA) per the manufacturer's instructions. […] Normalized absorbance values were obtained by subtracting the background from the signal.

T. rubrum = assay: Ex vivo onychomycosis porcine nail model; design: species or system Trichophyton rubrum on porcine nails; key to Summary of significance, fungal load: * p<0.05; ** p<0.01; *** p<0.001; **** p<0.0001; ns: non-significant; settings: for Mean rank diff. of fungal load: T. rubrum nails
Experimental: For microconidia preparation, T. rubrum was inoculated on potato dextrose agar containing 0.025% Sabouraud dextrose broth (SDB) and 1.0% penicillin-streptomycin. After a 10-day incubation at 28 ° C, the plates were flooded with PBS, which was then aspirated and filtered through a sterilized cotton gauze to recover microconidia (Ma et al., 2022).
An ex vivo onychomycosis model was established as previously described (Quatrin et al., 2020) with modifications. Pig hooves with exposed toenails were processed into ~1 cm^2-sized individual toenail samples with a band saw, washed with 70% ethyl alcohol and sterilized water, and inoculated with a microconidia suspension of T. rubrum (~10^7 conidia mL^−1) for 3 h. Samples were placed in a Petri dish containing moist sterilized paper and incubated at 28 ° C for 10 days. Fungal growth was confirmed by sample resuspension in PBS and plating on PDA containing 0.025% SDB and 1% penicillin-streptomycin. Infected samples were then treated with (1) 1% DMSO plus light, (2) monotherapy with MM 1 alone (0.77% in DMSO) plus light, (3) monotherapy with conventional antifungal (three drops (Quatrin et al., 2020) of Ciclopirox Topical Suspension USP, 0.77% “Lotion”, Leading Pharma, LLC, NY, USA, or Ciclopirox Topical Solution, 8% “Lacquer”, Perrigo New York Inc., NY, USA), or (4) combination therapy with MM 1 plus light and conventional antifungal. Each treatment group consisted of three samples. After 30 min, samples in the irradiated treatment groups were transferred to 24-well plates (Corning-Costar Corp., Corning, NY, USA) and irradiated with 405-nm light (87.6 J cm^−2). Treatment was repeated every 24 h for 5 days. Afterward, the samples were transferred to tubes containing PBS plus 1% penicillin-streptomycin, vortexed, and sonicated (Quatrin et al., 2020). Triplicate aliquots of this suspension were inoculated on PDA plates containing 1% penicillin-streptomycin. After a 10-day incubation at 28 ° C, CFU numbers were determined. Untreated samples served as positive controls.

[2] = tested on: persister cells of A. baumannii; assay: Persister eradication, A. baumannii; type: cell-based, Acinetobacter baumannii; settings: 1×MIC, 405 nm
[3] = tested on: persister cells of P. aeruginosa; assay: Persister eradication, P. aeruginosa; type: cell-based, Pseudomonas aeruginosa; settings: 1×MIC, 405 nm
E. coli = assay: Extracellular ATP, E. coli; type: cell-based, Escherichia coli; settings: 1×MIC
Experimental: Intracellular content leakage following treatment with MMs was determined by quantifying extracellular ATP (O'Neill et al, 2004). Following irradiation in the presence of different concentrations of MM 1, MM 5, and MM 6, or 1% DMSO, E. coli cells were centrifuged at 13,000 g for 5 min. Supernatants were recovered and stored at −20 ° C for ATP analysis. ATP analysis was conducted using the luminescence-based BacTiter-Glo™ assay (Promega) per the manufacturer's instructions. Nisin was used as a positive control. The levels of ATP in supernatants were derived via a standard curve of ATP standards from 1 nM to 1 μM. Luminescence measurements of ATP standards and culture supernatants were measured in triplicate on a microplate reader (BioTek Instruments Inc, Winooski, VT, USA). Results were expressed as relative light units (RLU) corrected for […] in the absence of cells.

[4] = Photodegradation of MMs by 1H NMR; type: physicochemical; settings: 5 min, 146 mW cm^−2 405 nm, DMSO-d6
Experimental: Aromatic region of ^1H NMR (600 MHz) spectra of MM 1 (300 mM in DMSO-d6) before and after irradiation for 5 min with 146 mW cm^−2 of 405 nm light.

SMILES	time to reduce cell numbers to limit of detection (C. albicans) [min]	reduction of biofilm viability [1]	Summary of significance, fungal load (T. rubrum; 1% DMSO vs treatment)	Mean rank diff. of fungal load (T. rubrum; 1% DMSO vs treatment)	Summary of significance, fungal load (T. rubrum; CPX Lacquer vs treatment)	Mean rank diff. of fungal load (T. rubrum; CPX Lacquer vs treatment)	Summary of significance, fungal load (T. rubrum; CPX Lotion vs treatment)	Mean rank diff. of fungal load (T. rubrum; CPX Lotion vs treatment)	log reduction at 7700 µg/mL (T. rubrum; Trichophyton rubrum, topical, T. rubrum, 0.77% (w/v) MM 1 + 405-nm light, vs DMSO controls, read-out: reduction of fungal burden in porcine nails)	time to reduce persister cells to limit of detection [2] [min]	time to reduce persister cells to limit of detection [3] [min]	extracellular levels of ATP (E. coli)	photodegradation [4]
C[C@@H]1Cc2ccc3ccccc3c2/C1=C1\c2ccccc2Sc2cc(NCCN)ccc21 (racemic) [MM 6, N^1-(9-(2-methyl-2,3-dihydro-1H-cyclopenta[a]naphthalen-1-ylidene)-9H-thioxanthen-3-yl)ethane-1,2-diamine]	5												
C[C@@H]1Cc2ccc3ccccc3c2/C1=C1\c2ccccc2Sc2cc(NCCN(C)C)ccc21 [MM 1, N^1N^1-dimethyl-N^2-(9-(2-methyl-2,3-dihydro-1H-cyclopenta[a]naphthalen-1-ylidene)-9H-thioxanthen-3-yl) ethane-1,2-diamine]		up to 96%	** (** p<0.01)	28.00	ns	14.33	ns	14.67	~2	3	2	up to 1.2×10^−7 moles	does not cause detectable photodegradation of MMs
